Measured values reported in patent US4493828A, “Use of thyrotropin releasing hormone and related peptides as poultry growth promotants” (Merck & Co., Inc., priority 1982, dated 1985).

Tested on: 4-week-old Hubbard×Hubbard cockerels
Test: Example 2: effect of TRH on growth in 4-week-old male chicks (25 days)
Format: in vivo, chicken
Description: Four-week-old Hubbard×Hubbard cockerels were used in this experiment, and average weight was 831.38 g. Synthetic TRH (Beckman Co., CA) was dissolved in saline and given daily by intravenous injection via the brachial vein at 0.1 μg/bird, 1.0 μg/bird, and 10 μg/ bird. Birds were weighed twice a week for 4 weeks. Data were analyzed by least squares of variance, using initial weight as a covariant.

[1] = TRH (high) 10 μg/bird daily intravenous, day 11 after start of treatment
[2] = TRH (high) 10 μg/bird daily intravenous, day 15 after start of treatment
[3] = TRH (high) 10 μg/bird daily intravenous, day 18 after start of treatment
[4] = TRH (high) 10 μg/bird daily intravenous, day 22 after start of treatment
[5] = TRH (high) 10 μg/bird daily intravenous, day 25 after start of treatment
[6] = TRH (low) 0.1 μg/bird daily intravenous, day 4 after start of treatment
[7] = TRH (low) 0.1 μg/bird daily intravenous, day 8 after start of treatment
[8] = TRH (low) 0.1 μg/bird daily intravenous, day 11 after start of treatment
[9] = TRH (low) 0.1 μg/bird daily intravenous, day 15 after start of treatment
[10] = TRH (low) 0.1 μg/bird daily intravenous, day 18 after start of treatment
[11] = TRH (low) 0.1 μg/bird daily intravenous, day 18 after start of treatment, p < 0.1
[12] = TRH (low) 0.1 μg/bird daily intravenous, day 22 after start of treatment
[13] = TRH (low) 0.1 μg/bird daily intravenous, day 22 after start of treatment, p < 0.1
[14] = TRH (low) 0.1 μg/bird daily intravenous, day 25 after start of treatment, p < 0.1
[15] = TRH (med.) 1.0 μg/bird daily intravenous, day 4 after start of treatment
[16] = TRH (med.) 1.0 μg/bird daily intravenous, day 8 after start of treatment
[17] = TRH (med.) 1.0 μg/bird daily intravenous, day 11 after start of treatment
[18] = TRH (med.) 1.0 μg/bird daily intravenous, day 15 after start of treatment
[19] = TRH (med.) 1.0 μg/bird daily intravenous, day 18 after start of treatment
[20] = TRH (med.) 1.0 μg/bird daily intravenous, day 18 after start of treatment, p < 0.1
[21] = TRH (med.) 1.0 μg/bird daily intravenous, day 22 after start of treatment
[22] = TRH (med.) 1.0 μg/bird daily intravenous, day 22 after start of treatment, p < 0.05
[23] = TRH (med.) 1.0 μg/bird daily intravenous, day 25 after start of treatment, p<0.025

In the case of NC(=O)[C@@H]1CCCN1C(=O)[C@H](Cc1c[nH]cn1)NC(=O)[C@@H]1CCC(=O)N1 [TRH, Glp--His--Pro--NH2], the “body weight, percent increased as compared with control” value (from here on “body weight, percent increased”) (TRH (high) 10 μg/bird daily intravenous, day 8 after start of treatment) was 0%, the body weight gain [1] was 542.9 ± 20.5 g and the “body weight gain, percent increase as compared with control” value (shortened to “body weight gain, percent increase”) [1] was 0%. For the same compound, the “body weight, least squares mean ± standard error of the mean corrected by initial weight” value [1] was 1381.7 ± 20.3 g, the “body weight, percent increased” value [1] was 0% and the body weight gain [2] was 786.4 ± 20.4 g. The “body weight gain, percent increase” value [2] was 0.9%, the “body weight, least squares mean ± standard error of the mean corrected by initial weight” value [2] was 1627.6 ± 20.4 g and the “body weight, percent increased” value [2] was 0.4%. For the same compound, the body weight gain [3] was 981.5 ± 24.3 g, the “body weight gain, percent increase” value [3] was 2.7% and the “body weight, least squares mean ± standard error of the mean corrected by initial weight” value [3] was 1821.6 ± 24.2 g. For the same compound, the “body weight, percent increased” value [3] was 1.4%, the body weight gain [4] was 1193.2 ± 26.3 g and the “body weight gain, percent increase” value [4] was 2.1%. The “body weight, least squares mean ± standard error of the mean corrected by initial weight” value [4] was 2034.4 ± 26.3 g, the “body weight, percent increased” value [4] was 1.2% and the body weight gain [5] was 1390.9 ± 28.7 g. For the same compound, the “body weight gain, percent increase” value [5] was 2.9%, the “body weight, least squares mean ± standard error of the mean corrected by initial weight” value [5] was 2232.1 ± 28.7 g and the “body weight, percent increased” value [5] was 1.7%. The body weight gain [6] was 167.1 ± 8.4 g, the “body weight gain, percent increase” value [6] was 11.8% and the “body weight, least squares mean ± standard error of the mean corrected by initial weight” value [6] was 1012.2 ± 8.3 g. For the same compound, the “body weight, percent increased” value [6] was “+2.2%”, the body weight gain [7] was 407.6 ± 15.1 g and the “body weight gain, percent increase” value [7] was 7.8%. For the same compound, the “body weight, least squares mean ± standard error of the mean corrected by initial weight” value [7] was 1248 ± 15.0 g, the “body weight, percent increased” value [7] was “+2.4%” and the body weight gain [8] was 585.1 ± 20.5 g. The “body weight gain, percent increase” value [8] was 7.0%, the “body weight, least squares mean ± standard error of the mean corrected by initial weight” value [8] was 1426.4 ± 20.3 g and the “body weight, percent increased” value [8] was “+2.8%”. The body weight gain [9] was 822.9 ± 20.4 g, the “body weight gain, percent increase” value [9] was 5.6% and the “body weight, least squares mean ± standard error of the mean corrected by initial weight” value [9] was 1664.2 ± 20.4 g. For the same compound, the “body weight, percent increased” value [9] was “+2.7%”, the “body weight gain, percent increase” value [10] was 6.3% and the “body weight, percent increased” value [10] was “+3.3%”. The body weight gain [11] was 1015.8 ± 24.3 g, the “body weight, least squares mean ± standard error of the mean corrected by initial weight” value [11] was 1856.9 ± 24.2 g and the “body weight gain, percent increase” value [12] was 6.4%. For the same compound, the “body weight, percent increased” value [12] was 3.7%, the body weight gain [13] was 1243.5 ± 26.3 g and the “body weight, least squares mean ± standard error of the mean corrected by initial weight” value [13] was 2084.7 ± 26.3 g. For the same compound, the “body weight, percent increased” value (TRH (low) 0.1 μg/bird daily intravenous, day 25 after start of treatment) was 3.4%, the “body weight gain, percent increase” value (TRH (low) 0.1 μg/bird daily intravenous, day 25 after start of treatment (end of experiment)) was 5.6% and the body weight gain [14] was 1428.1 g. For the same compound, the “body weight, least squares mean ± standard error of the mean corrected by initial weight” value [14] was 2269.3 g, the body weight gain [15] was 170.1 ± 7.9 g and the “body weight gain, percent increase” value [15] was 13.9%. The “body weight, least squares mean ± standard error of the mean corrected by initial weight” value [15] was 1010.3 ± 7.8 g, the “body weight, percent increased” value [15] was “+2.0%” and the body weight gain [16] was 413.4 ± 14.2 g. For the same compound, the “body weight gain, percent increase” value [16] was 9.3%, the “body weight, least squares mean ± standard error of the mean corrected by initial weight” value [16] was 1254.1 ± 14.2 g and the “body weight, percent increased” value [16] was “+2.8%”. For the same compound, the body weight gain [17] was 573.1 ± 19.3 g, the “body weight gain, percent increase” value [17] was 4.5% and the “body weight, least squares mean ± standard error of the mean corrected by initial weight” value [17] was 1415.4 ± 19.1 g. The “body weight, percent increased” value [17] was “+2.0%”, the body weight gain [18] was 823.2 ± 19.2 g and the “body weight gain, percent increase” value [18] was 5.7%. The “body weight, least squares mean ± standard error of the mean corrected by initial weight” value [18] was 1664.4 ± 19.2 g, the “body weight, percent increased” value [18] was “+2.7%” and the “body weight gain, percent increase” value [19] was 6.6%. For the same compound, the “body weight, percent increased” value [19] was “+3.5%”, the body weight gain [20] was 1018.9 ± 22.9 g and the “body weight, least squares mean ± standard error of the mean corrected by initial weight” value [20] was 1860.1 ± 22.8 g. For the same compound, the “body weight gain, percent increase” value [21] was 7.0%, the “body weight, percent increased” value [21] was 4.1% and the body weight gain [22] was 1250.5 ± 24.8 g. The “body weight, least squares mean ± standard error of the mean corrected by initial weight” value [22] was 2091.7 ± 24.8 g, the “body weight, percent increased” value (TRH (med.) 1.0 μg/bird daily intravenous, day 25 after start of treatment) was 4.6% and the “body weight gain, percent increase” value (TRH (med.) 1.0 μg/bird daily intravenous, day 25 after start of treatment (end of experiment)) was 7.5%. The body weight gain [23] was 1453.2 g and the “body weight, least squares mean ± standard error of the mean corrected by initial weight” value [23] was 2294.4 g.
